This is an account of results in ChEMBL document CHEMBL6134865, “Rational Design of Methylene Blue-Raloxifene Conjugates for Efficient Breast Tumor Elimination Triggered by ERα Degradation” (J Med Chem, 2025).

Calls of active or inactive are those of the source. The rule behind the calls is not given here.

A short description of data set [1]: Toxicity in female BALB/c mouse xenografted with human MCF7 cells assessed as change in platelet level at 5 mg/kg, iv measured after 14 days. The class given is organism-based. As to conditions: in vivo, 336 h, time 14 day. In general terms: In xenograft studies the graft and the host belong to different species.
A short description of data set [2]: Drug uptake in female BALB/c mouse liver xenografted with human MCF7 cells at 5 mg/kg, iv measured after 4 hrs by fluorescence imaging analysis. The note with it: in vivo. Type of data set: ADME, organism-based.
Data set [3] has as its system MCF7. Briefly: Photothermal effect in human MCF7 cells assessed as temperature of cell culture medium at 1 uM irradiated with 660 nm 0.4 W/cm2 light for 1 min (reference value: 26 degreeC). The note with it: mcf7, 1 min. Type of data set: ADME, cell-based.
A short description of data set [4]: Toxicity in female BALB/c mouse xenografted with human MCF7 cells assessed as change in lymphocytes level at 5 mg/kg, iv measured after 14 days. The class given is organism-based. The note with it: in vivo, 336 h, time 14 day.
The test system of data set [5] is MCF7. Description: Induction of ROS generation in human MCF7 cells assessed as cell percentage with elevated ROS at 1 uM incubated for 6 hrs followed by irradiation with 660 nm 0.4 W/cm2 light for 4 min by DCFH-DA probe based flow cytometric analysis (reference value: 0.2 %). Type of data set: functional. The note with it: time 364 min, 6.067 h. (In general: A flow cytometer gives signals particle by particle.)

Data set [6] has as its system MCF7. Briefly: Photothermal effect in human MCF7 cells assessed as temperature of cell culture medium at 1 uM irradiated with 660 nm 0.4 W/cm2 light for 4 min (reference value: 26 degreeC). As to conditions: mcf7, 4 min. The class given is ADME, cell-based.
Data set [7] is described as follows: in vivo. The note with it: Sprague-Dawley, rat, po, 15 mg/kg.
Description: Tmax in Sprague-Dawley rat at 15 mg/kg, po administered via gavage and measured after 0.5 to 168 hrs by LC-MS analysis
A short description of data set [8]: Drug uptake in human MCF7 cell cytoplasm assessed as increase in red fluorescence at 1 uM incubated for 6 hrs by fluorescence imaging analysis. Type of data set: ADME, subcellular. The note with it: mcf7, 6 h.
Data set [9] can be described thus: Toxicity in female BALB/c mouse xenografted with human MCF7 cells assessed as change in AST level at 5 mg/kg, iv measured after 14 days with 660 nm 0.4 W/cm2 light irradiation for 5 mins at 4 hrs of incubation time. Type of data set: organism-based. The note with it: in vivo, 336 h, time 14 day.
In data set [10] the test system is MCF7. Briefly: cells. As to conditions: Homo sapiens, MCF7, light or radiation study.
Description: Antiproliferative activity against human MCF7 cells assessed as inhibition of cell proliferation incubated for 48 hrs with 660 nm 0.4 W/cm2 light irradiation for 2 min at 6th hr of incubation time by MTT assay
Data set [11] concerns MCF7. Description: Antitumor activity against human MCF7 cells xenografted in female BALB/c mouse model assessed as damage in tumor tissue at 5 mg/kg, iv measured after 14 days with 660 nm 0.4 W/cm2 light irradiation for 5 mins at 4 hrs of incubation time by H and E staining based analysis. Type of data set: functional, organism-based. The note with it: time 14.0 day.
The test system of data set [12] is MCF7. Briefly: Antitumor activity against human MCF7 cells xenografted in female BALB/c mouse model assessed as tumor growth inhibition at 5 mg/kg, iv measured after 14 days relative to control. Type of data set: functional. The note with it: MCF7, 336 h, time 14 day, read-out: TGI.
Data set [13] can be described thus: Toxicity in female BALB/c mouse xenografted with human MCF7 cells assessed as effect on liver histology at 5 mg/kg, iv measured after 14 days by H and E staining based analysis. The class given is organism-based. As to conditions: in vivo, 336 h, time 14 day.
Data set [14] is described as follows: Toxicity in female BALB/c mouse xenografted with human MCF7 cells assessed as change in hematocrit level at 5 mg/kg, iv measured after 14 days. As to conditions: in vivo, 336 h, time 14 day. Type of data set: organism-based.
Data set [15] in a line: Toxicity in female BALB/c mouse xenografted with human MCF7 cells assessed as change in body weight at 5 mg/kg, iv measured after 14 days. The class given is organism-based. As to conditions: in vivo, 336 h, time 14 day.
Data set [16] deals with MCF7. Briefly: Induction of ROS generation in human MCF7 cells assessed as cell percentage with elevated ROS incubated for 6 hrs followed by irradiation with 660 nm 0.4 W/cm2 light for 5 min by DCFH-DA probe based flow cytometric analysis. Type of data set: functional. As to conditions: dose 0.1-5 µM, time 365.0 min.
The subject of data set [17] is MCF7. Briefly: Antitumor activity against human MCF7 cells xenografted in female BALB/c mouse model assessed as tumor growth inhibition at 5 mg/kg, iv measured after 14 days with 660 nm 0.4 W/cm2 light irradiation for 5 mins at 4 hrs of incubation time relative to control. The class given is functional. The note with it: MCF7, light or radiation study, 336 h, time 14 day, read-out: TGI.

Data set [18] has as its system MCF7. Briefly: Induction of ROS generation in human MCF7 cells assessed as cell percentage with elevated ROS at 1 uM incubated for 6 hrs followed by irradiation with 660 nm 0.4 W/cm2 light for 3 min by DCFH-DA probe based flow cytometric analysis (reference value: 0.2 %). The note with it: time 363 min, 6.05 h. The class given is functional.
Data set [19] deals with MCF7. Briefly: Antitumor activity against human MCF7 cells xenografted in female BALB/c mouse model assessed as tumor regression at 5 mg/kg, iv measured after 14 days with 660 nm 0.4 W/cm2 light irradiation for 5 mins at 4 hrs of incubation time (reference value: 122.9 mm3). Type of data set: functional. As to conditions: time 14 day.
The test system of data set [20] is MCF7. Description: cells. The note with it: Homo sapiens, MCF7, light or radiation study. This is another data set of the same source.
Description: Antiproliferative activity against human MCF7 cells assessed as inhibition of cell proliferation incubated for 48 hrs with 660 nm 0.4 W/cm2 light irradiation for 3 min at 6th hr of incubation time by MTT assay
The nature of data set [21]: Toxicity in female BALB/c mouse xenografted with human MCF7 cells assessed as change in blood urea nitrogen level at 5 mg/kg, iv measured after 14 days with 660 nm 0.4 W/cm2 light irradiation for 5 mins at 4 hrs of incubation time. The class given is organism-based. The note with it: in vivo, 336 h, time 14 day.
Data set [22] has as its system MCF7. Briefly: Induction of ROS generation in human MCF7 cells assessed as cell percentage with elevated ROS at 1 uM incubated for 6 hrs followed by irradiation with 660 nm 0.4 W/cm2 light for 1 min by DCFH-DA probe based flow cytometric analysis (reference value: 0.2 %). The class given is functional. The note with it: time 361 min, 6.017 h.
Data set [23] can be described thus: in vivo. The note with it: Sprague-Dawley, rat, iv, 5 mg/kg.
Description: Volume of distribution at steady state in Sprague-Dawley rat at 5 mg/kg, iv measured after 0.5 to 168 hrs by LC-MS analysis
Data set [24] concerns MCF7. Description: Photothermal effect in human MCF7 cells assessed as temperature of cell culture medium at 1 uM irradiated with 660 nm 0.4 W/cm2 light for 5 min (reference value: 26 degreeC). Type of data set: ADME, cell-based. The note with it: mcf7, 5 min.

As for `CCN(CC)c1ccc2nc3c4ccccc4/c(=N\CCCCCCC(=O)NCCOc4ccc(C(=O)c5c(-c6ccc(O)cc6)sc6cc(O)ccc56)cc4)cc-3sc2c1`, the Activity result is reported as “Non-toxic” in data set [1]; “Non-toxic” in data set [4]; 47.8% in data set [5]; “Non-toxic” in data set [9]; “Non-toxic” in data set [13]; “Non-toxic” in [14]. In addition, the Activity result is “Non-toxic” in data set [15]; “Dose-dependent-effect” in data set [16]; 15% in data set [18]; 45.3 mm3 in data set [19]; “Non-toxic” in [21]; 5.5% in data set [22]. Further, the Drug uptake result in data set [2] and in data set [8] was “Active” in each case. Further, the T in data set [3] turned out to be 27.3 °C; in data set [6], 30.9 °C; in data set [24], 32.5 °C. In addition, the Tmax (as a rule, the time from dosing to the highest level) in data set [7] turned out to be 6 h. Further, the IC50 (as a rule, the concentration needed to halve the response being measured) was determined as 290 nM in data set [10] and 200 nM in [20]. Further, the result in data set [11] was Active. Also, the inhibition in vivo at 5 mg/kg in data set [12] amounted to 77.5%; in data set [17] it was 118%. The Vd (in general, the apparent volume that relates the amount in the body to the concentration in plasma or blood) in data set [23] amounted to 108 L/kg.
